Experimental findings from patent US10377753B2, “Substituted 4-azaindoles and their use as GluN2B receptor modulators” (Janssen Pharmaceutica NV, priority 2015, dated 2019) are described below.

Structures are written as SMILES.

cloned human NR1/NR2B ion channels, sequence (Q13224 27-1484, other chains not shown): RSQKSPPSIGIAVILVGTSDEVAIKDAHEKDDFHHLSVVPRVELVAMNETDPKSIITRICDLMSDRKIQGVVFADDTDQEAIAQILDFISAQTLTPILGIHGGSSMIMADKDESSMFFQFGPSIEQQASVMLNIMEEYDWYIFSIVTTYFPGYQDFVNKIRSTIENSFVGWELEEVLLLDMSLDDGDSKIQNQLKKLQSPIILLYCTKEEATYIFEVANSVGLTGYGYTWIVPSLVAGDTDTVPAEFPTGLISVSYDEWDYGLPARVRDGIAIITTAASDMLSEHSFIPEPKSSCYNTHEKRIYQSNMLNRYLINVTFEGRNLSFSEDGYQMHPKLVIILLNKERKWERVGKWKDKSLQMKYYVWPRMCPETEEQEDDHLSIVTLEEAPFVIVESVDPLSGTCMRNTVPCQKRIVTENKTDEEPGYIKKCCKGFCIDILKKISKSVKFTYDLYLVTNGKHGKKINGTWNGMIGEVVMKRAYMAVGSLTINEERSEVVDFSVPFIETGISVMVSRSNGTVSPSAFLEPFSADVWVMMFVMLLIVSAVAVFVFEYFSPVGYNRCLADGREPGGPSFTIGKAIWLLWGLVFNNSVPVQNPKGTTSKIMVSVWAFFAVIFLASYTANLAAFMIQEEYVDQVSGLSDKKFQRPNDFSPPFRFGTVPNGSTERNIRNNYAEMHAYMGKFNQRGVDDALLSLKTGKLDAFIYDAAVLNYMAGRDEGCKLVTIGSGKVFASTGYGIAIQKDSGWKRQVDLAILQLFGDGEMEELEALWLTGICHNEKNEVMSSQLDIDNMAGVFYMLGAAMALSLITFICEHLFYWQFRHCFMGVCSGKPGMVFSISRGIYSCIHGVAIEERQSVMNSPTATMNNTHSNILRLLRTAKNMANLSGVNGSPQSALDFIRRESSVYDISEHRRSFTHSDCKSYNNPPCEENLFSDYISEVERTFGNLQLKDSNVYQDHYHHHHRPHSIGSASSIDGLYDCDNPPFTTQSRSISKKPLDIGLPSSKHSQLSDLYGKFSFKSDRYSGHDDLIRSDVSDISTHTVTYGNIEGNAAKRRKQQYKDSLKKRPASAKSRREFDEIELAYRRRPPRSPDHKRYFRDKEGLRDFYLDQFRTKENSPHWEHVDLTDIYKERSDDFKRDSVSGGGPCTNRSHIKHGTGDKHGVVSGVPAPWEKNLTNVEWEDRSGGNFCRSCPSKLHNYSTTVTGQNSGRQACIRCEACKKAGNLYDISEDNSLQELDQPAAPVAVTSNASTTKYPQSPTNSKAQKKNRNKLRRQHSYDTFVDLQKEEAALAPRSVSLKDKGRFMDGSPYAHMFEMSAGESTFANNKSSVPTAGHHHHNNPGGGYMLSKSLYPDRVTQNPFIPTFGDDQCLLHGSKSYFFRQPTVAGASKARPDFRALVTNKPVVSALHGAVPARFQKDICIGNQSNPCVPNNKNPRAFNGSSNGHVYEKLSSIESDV

This test concerns the target cloned human NR1/NR2B ion channels (Homo sapiens (Human), UniProt Q05586+Q13224). The experiment in a line: HNR2BC: effects of test articles on cloned human NR1/NR2B ion channels expressed in mammalian cells (FLIPR calcium flux). The test is classed as cell-based. Particulars: cloned human NR1/NR2B ion channels, Table 5. The essentials: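 In a stable Tet-On-induced cell line expressing human GluN1/GluN2B, Calcium 5-loaded cells were preincubated 5 min with compound, then stimulated 5 min with glutamate at ~EC80 plus 10 μM glycine, in pH 7.4 HEPES buffer. FLIPR calcium fluorescence was normalized to control wells.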
(A change in cytosolic calcium serves as a functional read-out for many receptors and channels.)
Take `Cc1cn(CC(=O)N2CC(F)C2)c2cc(-c3cccc(C(F)(F)F)c3F)cnc12` [Example 589, 1-(3-Fluoroazetidin-1-yl)-2-[6-[2-fluoro-3-(trifluoromethyl)phenyl]-3-methyl-pyrrolo[3,2-b]pyridin-1-yl]ethanone]: the IC50 was 0.126 µM.
Consider `Cc1cn(CC(=O)N2CCCC2)c2cc(-c3cccc(C(F)(F)F)c3F)cnc12` [Example 590, 2-[6-[2-Fluoro-3-(trifluoromethyl)phenyl]-3-methyl-pyrrolo[3,2-b]pyridin-1-yl]-1-pyrrolidin-1-yl-ethanone], for which the IC50 is 0.316 µM.
Next, `Cc1cn(CC(=O)N2CCCC2)c2cc(-c3ccc(F)c(F)c3F)cnc12` [Example 591, 2-[3-Methyl-6-(2,3,4-trifluorophenyl)pyrrolo[3,2-b]pyridin-1-yl]-1-pyrrolidin-1-yl-ethanone]: 0.126 µM; `Cc1cn(CC(=O)N2CCC2)c2cc(-c3ccccc3F)cnc12` [Example 592, 1-(Azetidin-1-yl)-2-[6-(2-fluorophenyl)-3-methyl-pyrrolo[3,2-b]pyridin-1-yl]ethanone]: 0.126 µM; `Cc1cn(CC(=O)N(C)C)c2cc(-c3ccccc3F)cnc12` [Example 593, 2-[6-(2-Fluorophenyl)-3-methyl-pyrrolo[3,2-b]pyridin-1-yl]-N,N-dimethyl-acetamide]: 0.251 µM.
Consider `CCN(C)C(=O)Cn1cc(C)c2ncc(-c3ccccc3F)cc21` [Example 594, N-Ethyl-2-[6-(2-fluorophenyl)-3-methyl-pyrrolo[3,2-b]pyridin-1-yl]-N-methyl-acetamide], for which the IC50 is 0.794 µM.
`Cc1cn(CC(=O)N2CC(F)(F)C2)c2cc(-c3cccc(C(F)(F)F)c3F)cnc12` [Example 595, 1-(3,3-Difluoroazetidin-1-yl)-2-[6-[2-fluoro-3-(trifluoromethyl)phenyl]-3-methyl-pyrrolo[3,2-b]pyridin-1-yl]ethanone]: the IC50 is 0.251 µM.
The figure for `Cc1cn(CC(=O)N2CC(F)(F)C2)c2cc(-c3ccc(F)c(F)c3F)cnc12` [Example 596, 1-(3,3-Difluoroazetidin-1-yl)-2-[3-methyl-6-(2,3,4-trifluorophenyl)pyrrolo[3,2-b]pyridin-1-yl]ethanone] is 0.0501 µM; for `Cc1cn(CC(=O)N2CC(F)(F)C2)c2cc(-c3ccccc3F)cnc12` [Example 597, 1-(3,3-Difluoroazetidin-1-yl)-2-[6-(2-fluorophenyl)-3-methyl-pyrrolo[3,2-b]pyridin-1-yl]ethanone] it is 0.316 µM; for `Cc1cn(CC(=O)N2CC(F)C2)c2cc(-c3cc(F)c(F)c(F)c3)cnc12` [Example 598, 1-(3-Fluoroazetidin-1-yl)-2-[3-methyl-6-(3,4,5-trifluorophenyl)pyrrolo[3,2-b]pyridin-1-yl]ethanone] it is 0.0398 µM.
The figure for `Cc1cc(-c2cnc3c(Cl)cn(CC(=O)N(C)C)c3c2)c(C)s1` [Example 599, 2-[3-Chloro-6-(2,5-dimethyl-3-thienyl)pyrrolo[3,2-b]pyridin-1-yl]-N,N-dimethyl-acetamide] is 0.1 µM.
Next, `CN(C)C(=O)Cn1cc(Cl)c2ncc(-c3cccc(C(F)(F)F)c3)cc21` [Example 600, 2-[3-Chloro-6-[3-(trifluoromethyl)phenyl]pyrrolo[3,2-b]pyridin-1-yl]-N,N-dimethyl-acetamide]: 0.0794 µM.
For `CN(C)C(=O)Cn1cc(Cl)c2ncc(-c3cccc(C(F)(F)F)n3)cc21` [Example 601, 2-[3-Chloro-6-[6-(trifluoromethyl)-2-pyridyl]pyrrolo[3,2-b]pyridin-1-yl]-N,N-dimethyl-acetamide], the IC50 is 0.126 µM.
Next, `Cc1cc(-c2cnc3c(Cl)cn(CC(=O)N(C)C)c3c2)sc1Cl` [Example 602, 2-[3-Chloro-6-(5-chloro-4-methyl-2-thienyl)pyrrolo[3,2-b]pyridin-1-yl]-N,N-dimethyl-acetamide]: 0.01 µM.

The IC50 is the concentration at which inhibition is half-maximal.
